# Data taken from publication PMC7026080, “Phenotypic high-throughput screening platform identifies novel chemotypes for necroptosis inhibition” (Cell Death Discovery, 2020).
# pEC50: −log10 of the molar value. Read-outs that look alike come from different tables or passages of the source.
# Experiments:
# Jurkat FADD-/- cells = assay: Necroptosis inhibition in Jurkat FADD-/- cells + TNF-α, 8 h, AK release; format: cell-based; details: Homo sapiens; for pEC50: 8 h, screening step 2, AK release, read-out: EC50 Jurkat FADD(-/-) + TNF-α (in vitro); for EC50: read-out: Jurkat FADD (-/-) (in vitro) pEC50 (converted)
# Procedure: The second screening step aimed to determine the EC50 of selected compounds. L929 and Jurkat FADD^-/- cells were co-incubated with TNF-α and test compounds at 10-point concentration range (0.004–100 μM) for 8 h. Compound-mediated inhibition of necroptosis was assessed through AK release and the EC50 calculated. Jurkat cells were used to validate results in human cells. […] In HTS step two, 4374 compounds (3353 hits from HTS step one plus 1021 near neighbours) were evaluated for potency by dose-response curves. From those, 1,438 hit compounds passed the selection criteria on both cell lines, corresponding to a […] hit rate.
# L929 cells were co-incubated for 8 h with mTNF-α and test compounds at 31.7 μM after which AK release was measured. […] Hit compounds were then evaluated for apoptosis modulation. Further details are provided as Supplementary Information.
# Cell treatments and viability assays. Cells were seeded in 384- or 96-well plates at 1000 or 8000 cells/well (in 12.5 μL or 100 μL final volume), respectively, using a Multidrop^TM Combi Reagent Dispenser (ThermoFisher Scientific). For inducing necroptosis, L929 and Jurkat FADD^-/- cells were incubated with 10 ng/mL mTNF-α and hTNF-α respectively; BV2 cells with 25 µM Z-VAD-FMK, and HT29 cells with 20 ng/mL hTNF-α, 250 nM Smac mimetic BV6 and 10 μM Z-VAD-FMK. Cells were co-incubated in the presence of test compounds at target concentrations for 8 or 24 h. Nec-1 at 29.2 μM was used as positive control. For apoptosis assays, Jurkat E6.1 cells were co-incubated with 0.5 μg/mL CHX and test compounds at target concentrations for 8 h. […]
# Adenylate kinase (AK) and lactate dehydrogenase (LDH) release from damaged cells were measured using the Toxilight BioAssay Kit (Lonza, Basel, Switzerland) and the Cytotoxicity Detection Kit (Roche Diagnostics GmbH, Mannheim, Germany), respectively. Adenosine triphosphate (ATP) metabolism was evaluated using CellTiter-Glo^TM Luminescent Cell Viability Assay (Promega, Madison, WI, USA). Apoptosis was determined by the measurement of caspase-3/-7 activity using the Caspase-Glo® 3/7 Assay (Promega) according to the manufacturer’s instructions. Cellular metabolic activity was measured using CellTiter 96® Aqueous Non-Radioactive Cell Proliferation (MTS) Assay (Promega). Luminescence signal was recorded using a GloMax®-MultiDetection System (Promega) and absorbance with a Model 680 microplate reader (Bio-Rad Laboratories Inc, Hercules, CA, USA).
# Primary high-throughput screen. […] Eight hours after co-incubation of L929 cells with mTNF-α and test compounds, AK release was evaluated. […] Eight hours after co-incubation of L929 or Jurkat FADD^-/- cells with TNF-α and test compounds, AK release was evaluated. […]
# Aqueous solubility = format: physicochemical; details: read-out: Aqueous solubility, concentration
# [1] = Caco-2 cell-based permeability assay; format: in vitro ADME; details: human
# [2] = Human microsomal clearance (in vitro); format: in vitro ADME; details: microsomes, read-out: Human microsomal clearance (in vitro) rate
# TNF-α-induced SIRS = assay: TNF-α-induced systemic inflammatory response syndrome (SIRS) in mice; format: in vivo, mouse; details: 5 mg/kg i.v. 15 min before mTNF-α 0.38 mg/kg; C57BL/6J mice
# Source text: To confirm that the screening strategy leads to hits functionally active in vivo, we tested one of the hits for its ability to protect against RIPK-driven inflammation in TNF-α-induced systemic inflammatory response syndrome (SIRS). This mouse model of sterile sepsis[32] is dependent on RIPK1 and RIPK3 kinase activity and independent of apoptosis and inflammasome activity.
# Representative blots and quantification of p-RIPK3/RIPK3 and p-MLKL/MLKL ratios in fold-change from control. Blots were normalized to endogenous β-actin.
# Nec-1 was positive control for TNF-induced SIRS protection. Body temperature and mortality were monitored up to 96 h. Further details are provided as Supplementary Information.
# Animal studies, injections and monitoring. Male C57BL/6J mice with 18-26 g (Charles River Laboratories International, Inc., Wilmington, MA, USA) were used at the age of 8-14 weeks. Five to seven animals were included in each experimental group. All animal experiments were carried out with the permission of local animal ethical committee in accordance with the EU Directive (2010/63/EU), Portuguese laws (DL113/2013, 2880/2015, 260/2016) and all relevant legislations. Animals received humane care in a temperature-controlled environment with a 12 h light-dark cycle and ad libitum access to pelleted chow and water, complying with the Institute’s guidelines, and as outlined in the “Guide for the Care and Use of Laboratory Animals” prepared by the National Academy of Sciences and published by the National Institutes of Health (NIH publication 86-23 revised 1985). […] Nec-1 was diluted as follows (v/v): 48% PBS 1X, 17% DMSO and 35% PEG 400. […] All injections were administered intravenously (i.v.) in 100 µL volume each. Body temperature was recorded on mice pre-shaven back using a non-contact infrared thermometer suitable for animal use (BIO-IRB153; BioSeb, Vitrolles, France). Body temperature and mortality were monitored up to 96 h. Animals were euthanized by inhalative induction of narcosis with isoflurane at the end of the experiment, or at humane endpoints according to the Clinical Severity Score ^59.
Structure (SMILES),pEC50 (Jurkat FADD-/- cells),EC50 (Jurkat FADD-/- cells),solubility (Aqueous solubility),efflux ratio [1],Papp A→B [1],Papp B→A [1],microsomal CLint [2],Survival in TNF-α-induced SIRS (TNF-α-induced SIRS),TNF-α shock-associated hypothermia (body temperature) (TNF-α-induced SIRS),solubility (Aqueous solubility; aqueous medium (not further specified))
"CN1C(=O)C(Cc2c[nH]c3ccccc23)NC1=S (centres unmarked) [Nec-1, necrostatin-1]",6.41,398 nM,97 µM,0.36,38 ×10⁻⁶ cm/s,14 ×10⁻⁶ cm/s,59 µL/min/mg,all survived,fully protected from hypothermia,
O=C(c1cnn(Cc2ccccc2)c1)N1CCOc2ccccc2C1 [SN-6109],6.20,631 nM,,,31 ×10⁻⁶ cm/s,16 ×10⁻⁶ cm/s,42 µL/min/mg,~50%,gradually recovered their basal temperature in 48 h post-injection,47 µM
